Results published in PubChem BioAssay AID248 (DTP/NCI, 2004).
Where “and” joins values, the source holds several entries; their conditions need not be identical. Equal values may be shown once. Toxic doses and inconclusive results are not listed. No stated cut-off is given here; in the data, active means T/C of 150% or more; inactive means T/C below 125%.

Tested on: L1210 leukemia ip in BDF1 mice, survival T/C
Assay: NCI In Vivo Anticancer Drug Screen. Data for tumor model L1210 Leukemia (intraperitoneal) in B6D2F1 (BDF1) mice
Conditions: endpoint: mean survival time, higher = longer survival
Procedure, shortened: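 Value reflects the ratio of survival in compound-treated mice to survival in vehicle-treated controls, with both groups carrying the same transplanted tumor.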

[1] = dose: 100.0 mg/kg/injection, schedule: Q04DX002 (ip), vehicle: saline with Tween-80
[2] = dose: 200.0 mg/kg/injection, schedule: Q04DX002 (ip), vehicle: saline with Tween-80
[3] = dose: 400.0 mg/kg/injection, schedule: Q04DX002 (ip), vehicle: saline with Tween-80
[4] = dose: 100.0 mg/kg/injection, schedule: Q04DX003 (ip), vehicle: saline with Tween-80
[5] = dose: 200.0 mg/kg/injection, schedule: Q04DX003 (ip), vehicle: saline with Tween-80
[6] = dose: 400.0 mg/kg/injection, schedule: Q04DX003 (ip), vehicle: saline with Tween-80
[7] = dose: 100.0 mg/kg/injection, schedule: Q01DX009 (ip), vehicle: saline
[8] = dose: 200.0 mg/kg/injection, schedule: Q01DX009 (ip), vehicle: saline
[9] = dose: 100.0 mg/kg/injection, schedule: Q01DX001 (ip), vehicle: saline
[10] = dose: 200.0 mg/kg/injection, schedule: Q01DX001 (ip), vehicle: saline
[11] = dose: 100.0 mg/kg/injection, schedule: Q01DX001 (ip), vehicle: Klucel (hydroxypropylcellulose) (HPC)
[12] = dose: 200.0 mg/kg/injection, schedule: Q01DX001 (ip), vehicle: Klucel (hydroxypropylcellulose) (HPC)
[13] = dose: 100.0 mg/kg/injection, schedule: Q04DX003 (ip), vehicle: saline
[14] = dose: 400.0 mg/kg/injection, schedule: Q01DX001 (ip), vehicle: Klucel (hydroxypropylcellulose) (HPC)

Measured: T/C

CCOC(=O)C(C/C=C/c1ccccc1)C(C)=O (centres undefined)
inactive: [1] 90 % of control | [2] 97 % of control | [3] 90 % of control

CNC(Cc1ccccc1)C1CCCCC1 (centres undefined)
inactive: dose: 6.0 mg/kg/injection, schedule: Q04DX003 (ip), vehicle: Klucel (hydroxypropylcellulose) (HPC) 93 % of control | dose: 12.0 mg/kg/injection, schedule: Q01DX009 (ip), vehicle: Klucel (hydroxypropylcellulose) (HPC) 98 % of control | dose: 12.0 mg/kg/injection, schedule: Q04DX003 (ip), vehicle: Klucel (hydroxypropylcellulose) (HPC) 98 % of control | dose: 25.0 mg/kg/injection, schedule: Q01DX009 (ip), vehicle: Klucel (hydroxypropylcellulose) (HPC) 98 % of control | dose: 25.0 mg/kg/injection, schedule: Q04DX003 (ip), vehicle: Klucel (hydroxypropylcellulose) (HPC) 95 % of control and 109 % of control | dose: 50.0 mg/kg/injection, schedule: Q01DX009 (ip), vehicle: Klucel (hydroxypropylcellulose) (HPC) 95 % of control

CCOC(=O)C(CCC1=NC(C)(C)CC(C)O1)C(=O)OCC (centres undefined)
inactive: [4] 94 % of control | [5] 101 % of control | [6] 94 % of control

CC1=CCCCC1Oc1ccccc1 (centres undefined)
inactive: [4] 104 % of control | [5] 96 % of control | [6] 109 % of control

O=C1CCCN(c2ccccc2)c2ccccc21
inactive: dose: 100.0 mg/kg/injection, schedule: Q01DX009 (ip), vehicle: other 100 % of control | dose: 100.0 mg/kg/injection, schedule: Q04DX003 (ip), vehicle: other 98 % of control | dose: 200.0 mg/kg/injection, schedule: Q01DX009 (ip), vehicle: other 98 % of control | dose: 200.0 mg/kg/injection, schedule: Q04DX003 (ip), vehicle: other 109 % of control | dose: 400.0 mg/kg/injection, schedule: Q01DX009 (ip), vehicle: other 96 % of control | dose: 400.0 mg/kg/injection, schedule: Q04DX003 (ip), vehicle: other 104 % of control

CCCC=C(CCCC)CCCC
inactive: [1] 87 % of control | [2] 94 % of control

NC(=O)c1ncc(-c2ccccc2)[nH]c1=O
inactive: [7] 105 % of control | [8] 92 % of control

CC(=O)CC(=O)Nc1cccc(C)n1
inactive: [9] 100 % of control | dose: 100.0 mg/kg/injection, schedule: Q04DX002 (ip), vehicle: Klucel (hydroxypropylcellulose) (HPC) 94 % of control | [10] 110 % of control | dose: 200.0 mg/kg/injection, schedule: Q04DX002 (ip), vehicle: Klucel (hydroxypropylcellulose) (HPC) 97 % of control

CCCCCC(=O)OC1(C(C)=O)CCC2C3CCC4=CC(=O)CCC4C3CCC21C (centres undefined)
inactive: dose: 12.5 mg/kg/injection, schedule: Q04DX002 (ip), vehicle: Klucel (hydroxypropylcellulose) (HPC) 94 % of control | dose: 25.0 mg/kg/injection, schedule: Q04DX002 (ip), vehicle: Klucel (hydroxypropylcellulose) (HPC) 90 % of control | dose: 50.0 mg/kg/injection, schedule: Q04DX002 (ip), vehicle: Klucel (hydroxypropylcellulose) (HPC) 94 % of control

c1ccc2nc3nc4ccccc4nc3nc2c1
inactive: dose: 5.0 mg/kg/injection, schedule: Q04DX002 (ip), vehicle: gum acacia 90 % of control | dose: 10.0 mg/kg/injection, schedule: Q04DX002 (ip), vehicle: gum acacia 93 % of control | dose: 20.0 mg/kg/injection, schedule: Q04DX002 (ip), vehicle: gum acacia 93 % of control and 94 % of control | dose: 75.0 mg/kg/injection, schedule: Q01DX001 (ip), vehicle: other 102 % of control | [1] 106 % of control | dose: 150.0 mg/kg/injection, schedule: Q01DX001 (ip), vehicle: other 98 % of control | [2] 100 % of control | dose: 300.0 mg/kg/injection, schedule: Q01DX001 (ip), vehicle: other 103 % of control | [3] 91 % of control

NC(N)=N/C(N)=N/Nc1ccc([N+](=O)[O-])cc1[N+](=O)[O-]
inactive: dose: 12.5 mg/kg/injection, schedule: Q04DX002 (ip), vehicle: saline with Tween-80 98 % of control | dose: 25.0 mg/kg/injection, schedule: Q04DX002 (ip), vehicle: saline with Tween-80 93 % of control | [1] 88 % of control

Cc1cc(N=Nc2ccc([N+](=O)[O-])cc2)ccc1O
inactive: [11] 98 % of control | [12] 95 % of control

O=C(OC1CCCCC1)c1ccccc1-c1ccccc1C(=O)OC1CCCCC1
inactive: dose: 100.0 mg/kg/injection, schedule: Q01DX001 (ip), vehicle: other 91 % of control | dose: 200.0 mg/kg/injection, schedule: Q01DX001 (ip), vehicle: other 91 % of control | dose: 400.0 mg/kg/injection, schedule: Q01DX001 (ip), vehicle: other 86 % of control

CCC(=O)NCC1(c2ccccc2)CCN(CC2COc3ccccc3O2)CC1 (centres undefined)
inactive: dose: 25.0 mg/kg/injection, schedule: Q01DX009 (ip), vehicle: saline 108 % of control | dose: 50.0 mg/kg/injection, schedule: Q01DX009 (ip), vehicle: saline 100 % of control | [7] 93 % of control | [13] 102 % of control

C#CCOc1ccccc1O
inactive: dose: 100.0 mg/kg/injection, schedule: Q01DX009 (ip), vehicle: acetone 94 % of control and 91 % of control | dose: 200.0 mg/kg/injection, schedule: Q01DX009 (ip), vehicle: acetone 94 % of control | dose: 400.0 mg/kg/injection, schedule: Q01DX009 (ip), vehicle: acetone 100 % of control and 92 % of control

Nc1nc2c([nH]c(=O)n2C2OC(CO)C(O)C2O)c(=O)n1N (centres undefined)
inactive: [9] 102 % of control | [10] 101 % of control | dose: 400.0 mg/kg/injection, schedule: Q01DX001 (ip), vehicle: saline 96 % of control

CCOC(=O)Nc1cc(N(C)CC(O)CN(C)c2ccccc2)c([N+](=O)[O-])c(N)n1 (centres undefined)
inactive: [11] 101 % of control | [12] 104 % of control | [14] 97 % of control

CCCCOCCCNC1=C(Cl)C(=O)c2ccccc2C1=O
inactive: dose: 12.5 mg/kg/injection, schedule: Q01DX001 (ip), vehicle: carboxymethylcellulose (CMC) 92 % of control | dose: 25.0 mg/kg/injection, schedule: Q01DX001 (ip), vehicle: carboxymethylcellulose (CMC) 96 % of control | dose: 50.0 mg/kg/injection, schedule: Q01DX001 (ip), vehicle: carboxymethylcellulose (CMC) 105 % of control

CC1=CCC2(C)CCC(C(C)C)C2(O)CC1 (centres undefined)
inactive: [7] 91 % of control | [8] 93 % of control

O=CC(CCN1CCCC1)(CCN1CCCC1)c1cccc2ccccc12
inactive: dose: 12.5 mg/kg/injection, schedule: Q04DX003 (ip), vehicle: saline 97 % of control | dose: 25.0 mg/kg/injection, schedule: Q04DX003 (ip), vehicle: saline 108 % of control | dose: 50.0 mg/kg/injection, schedule: Q04DX003 (ip), vehicle: saline 93 % of control

CC(C)c1ccc(C(=O)Nc2ccc(OCCCc3c(N)nc(N)nc3N)cc2)cc1S(=O)(=O)F
inactive: [11] 93 % of control | [12] 98 % of control | [14] 96 % of control

Cc1cc(N)c2cc(NC(=O)CCCCCCCC(=O)Nc3ccc4nc(C)cc(N)c4c3)ccc2n1
inactive: dose: 20.0 mg/kg/injection, schedule: Q01DX Z (ip), vehicle: methylcellulose (MC) 93 % of control | dose: 33.0 mg/kg/injection, schedule: Q01DX Z (ip), vehicle: methylcellulose (MC) 110 % of control | dose: 50.0 mg/kg/injection, schedule: Q01DX Z (ip), vehicle: methylcellulose (MC) 112 % of control | dose: 75.0 mg/kg/injection, schedule: Q01DX Z (ip), vehicle: methylcellulose (MC) 114 % of control

NC(CSC(c1ccccc1)(c1ccccc1)c1ccc(C(=O)O)cc1)C(=O)O.[Ga] (centres undefined)
inactive: dose: 100.0 mg/kg/injection, schedule: Q01DX001 (ip), vehicle: acetone 96 % of control | [7] 103 % of control | [13] 106 % of control | dose: 200.0 mg/kg/injection, schedule: Q01DX001 (ip), vehicle: acetone 98 % of control | [8] 90 % of control | dose: 200.0 mg/kg/injection, schedule: Q04DX003 (ip), vehicle: saline 97 % of control | dose: 400.0 mg/kg/injection, schedule: Q01DX001 (ip), vehicle: acetone 112 % of control | dose: 400.0 mg/kg/injection, schedule: Q01DX009 (ip), vehicle: saline 98 % of control | dose: 400.0 mg/kg/injection, schedule: Q04DX003 (ip), vehicle: saline 100 % of control

CSCC1OC(n2cnc3c(N)ncnc32)C(O)C1O (centres undefined)
inactive: dose: 50.0 mg/kg/injection, schedule: Q01DX001 (ip), vehicle: saline with Tween-80 96 % of control | dose: 100.0 mg/kg/injection, schedule: Q01DX001 (ip), vehicle: saline with Tween-80 96 % of control | dose: 200.0 mg/kg/injection, schedule: Q01DX001 (ip), vehicle: saline with Tween-80 96 % of control
